The text below walks through data of patent publication US9617286B2, “Fungicide N-[(trisubstitutedsilyl)methyl]-carboxamide derivatives” (BAYER INTELLECTUAL PROPERTY GMBH, priority 2011, dated 2017).

The subject of one data set is Puccinia recondita. Briefly: In vivo preventive test on Puccinia recondita (brown rust on wheat). The note with it: preventive spray, 500 ppm of active ingredient, grading 12 days after contamination. The procedure:
Wheat plants (“Scipion” variety), sown in starter cups on a 50/50 peat soil pozzolana substrate and grown at 22° C., are treated at the 1 leaf stage (10 cm height) by spraying with the active ingredient prepared as described above. Plants, used as controls, are treated with the mixture of acetone/tween/DMSO/water not containing the active material. After 24 hours, the plants are contaminated by spraying the leaves with an aqueous suspension of Puccinia recondita spores (100 000 spores per mL). The spores are collected from an infected plant and are suspended in water containing 2.5 mL/L of Tween 80 at 10%. The contaminated wheat plants are incubated for 24 hours at 20° C. and at 100% relative humidity, and then for 10 days at 20° C. and at 70-80% relative humidity. Grading (% of efficacy) is carried out 12 days after the contamination, in comparison with the control plants.

Data set [1] is described as follows: log P by HPLC on reversed-phase column (C 18), EEC Directive 79/831 Annex V.A8. In kind it is physicochemical. The note with it: 40° C., 0.1% aqueous formic acid and acetonitrile, linear gradient 10% to 90% acetonitrile. The procedure:
In table 1, the log P values were determined in accordance with EEC Directive 79/831 Annex V.A8 by HPLC (High Performance Liquid Chromatography) on a reversed-phase column (C 18), using the method described below:
Temperature: 40° C.; Mobile phases: 0.1% aqueous formic acid and acetonitrile; linear gradient from 10% acetonitrile to 90% acetonitrile.
Calibration was carried out using unbranched alkan-2-ones (comprising 3 to 16 carbon atoms) with known log P values (determination of the log P values by the retention times using linear interpolation between two successive alkanones). lambda-max-values were determined using UV-spectra from 200 nm to 400 nm and the peak values of the chromatographic signals.

A further data set concerns Septoria tritici. Briefly: In vivo preventive test on Septoria tritici (wheat). Particulars: preventive spray, 500 ppm of active ingredient, grading 24 days after contamination. The procedure: Wheat plants (“Scipion” variety), sown in starter cups on a 50/50 peat soil pozzolana substrate and grown at 22° C., are treated at the 1 leaf stage (10 cm height) by spraying with the active ingredient prepared as described above. Plants, used as controls, are treated with the mixture of acetone/tween/DMSO/water not containing the active material. After 24 hours, the plants are contaminated by spraying the leaves with an aqueous suspension of cryopreserved Septoria tritici spores (500 000 spores per mL). The contaminated wheat plants are incubated for 72 hours at 18° C. and at 100% relative humidity, and then for 21 days at 90% relative humidity. Grading (% of efficacy) is carried out 24 days after the contamination, in comparison with the control plants.

For a further data set, the system named is Pyrenophora teres. Put plainly: In vivo preventive test on Pyrenophora teres (barley). The note with it: preventive spray (DMF/alkylaryl polyglycol ether), 500 ppm of active ingredient, evaluated 7-9 days after inoculation. How it is done:
Solvent: 49 parts by weight of N,N-dimethylformamide Emulsifier: 1 part by weight of alkylaryl polyglycol ether To produce a suitable preparation of active compound, 1 part by weight of active compound is mixed with the stated amounts of solvent and emulsifier, and the concentrate is diluted with water to the desired concentration. To test for preventive activity, young plants are sprayed with the preparation of active compound at the stated rate of application. One day after this treatment, the plants are inoculated with an aqueous spore suspension of Pyrenophora teres. The plants remain for 48 hours in an incubation cabinet at 22° C. and a relative atmospheric humidity of 100%. Then the plants are placed in a greenhouse at a temperature of approximately 20° C. and a relative atmospheric humidity of approximately 80%.

The subject of another data set is Sphaerotheca fuliginea. Briefly: In vivo preventive test on Sphaerotheca fuliginea (powdery mildew on cucurbits). Particulars: gherkin plants, preventive spray, 500 ppm of active ingredient, grading 12 days after contamination. How it is done: Gherkin plants (“Vert petit de Paris” variety), sown in starter cups on a 50/50 peat soil-pozzolana substrate and grown at 24° C., are treated at the Z11 cotyledon stage by spraying with the active ingredient prepared as described above. Plants, used as controls, are treated with the mixture of acetone/tween/DMSO/water not containing the active material. After 24 hours, the plants are contaminated by spraying the cotyledons with an aqueous suspension of Sphaerotheca fuliginea spores (100 000 spores per mL). The spores are collected from infected plants. The contaminated gherkin plants are incubated at about 20° C. and at 70-80% relative humidity. Grading (% of efficacy) is carried out 12 days after the contamination, in comparison with the control plants.

The subject of another data set is Alternaria solani. Briefly: In vivo preventive test on Alternaria solani (tomato). Particulars: preventive spray, 500 ppm of active ingredient, evaluated 7 days after inoculation. How it is done: Solvent: 49 parts by weight of N,N-dimethylformamide Emulsifier: 1 part by weight of alkylaryl polyglycol ether To produce a suitable preparation of active compound, 1 part by weight of active compound is mixed with the stated amounts of solvent and emulsifier, and the concentrate is diluted with water to the desired concentration. To test for preventive activity, young plants are sprayed with the preparation of active compound at the stated rate of application. One day after this treatment, the plants are inoculated with an aqueous spore suspension of Alternaria solani. The plants remain for one day in an incubation cabinet at approximately 22° C. and a relative atmospheric humidity of 100%. Then the plants are placed in an incubation cabinet at approximately 20° C. and a relative atmospheric humidity of 96%.

Take `C[Si](C)(CNC(=O)c1cccnc1Cl)c1ccccc1` [Example 3]: the Efficacy with Puccinia recondita came out at 75%; with Septoria tritici, 90%. The compound further gave a logP in data set [1] of 2.61.

Consider `C[Si](C)(CNC(=O)c1nccnc1C(F)(F)F)c1ccccc1` [Example 7], for which the Efficacy stood at 100% in the data set with Pyrenophora teres and 93% with Septoria tritici. For the same compound, in data set [1], the logP is 3.15.

As to `C[Si](C)(CN(C(=O)c1nccnc1C(F)(F)F)C1CC1)c1ccccc1` [Example 9], the Efficacy in the data set with Pyrenophora teres stood at 100%; with Septoria tritici it was 86%. Besides, the logP in data set [1] is 4.13.

Take `Cc1ccccc1[Si](C)(C)CN(C(=O)c1cccnc1Cl)C1CC1` [Example 13]: the figures for the Efficacy with Pyrenophora teres and in the data set on Septoria tritici were 100% and 97%, respectively. In data set [1], this compound registered a logP of 3.80.

Take `C[Si](C)(CN(C(=O)c1cccnc1C(F)(F)F)C1CC1)c1ccccc1F` [Example 15]: the Efficacy in the data set with Pyrenophora teres was 100%; in the data set with Sphaerotheca fuliginea, 72%; with Puccinia recondita it was 75%; with Septoria tritici it was 71%. For the same compound, the logP in data set [1] is 3.96.

Turning to `C[Si](C)(CN(C(=O)c1cccnc1Cl)C1CC1)c1ccccc1F` [Example 17], the Efficacy amounted to 86% in the data set with Pyrenophora teres and 79% in the data set with Septoria tritici. In data set [1], this compound displayed a logP of 3.58.

For the compound `CCc1ccccc1[Si](C)(C)CN(C(=O)c1nccnc1C(F)(F)F)C1CC1` [Example 21], the Efficacy in the data set with Pyrenophora teres stood at 100%; in the data set with Sphaerotheca fuliginea it was 98%; in the data set on Puccinia recondita it was 75%; in the data set with Septoria tritici it was 86%. In data set [1], this compound gave a lipophilicity (logP) of 4.77.

As to `C[Si](C)(CN(C(=O)c1cccnc1C(F)F)C1CC1)c1ccccc1Cl` [Example 28], the Efficacy in the data set on Pyrenophora teres turned out to be 100%; in the data set on Alternaria solani, 89%. Also, the logP in data set [1] stood at 3.83.

For the compound `C[Si](C)(CNC(=O)c1cccnc1C(F)F)c1cccc(Cl)c1` [Example 29], the Efficacy in the data set with Pyrenophora teres and in the data set with Alternaria solani was 95% throughout. The same compound yielded a logP in data set [1] of 3.15.

On to `C[Si](C)(CN(C(=O)c1cccnc1C(F)(F)F)C1CC1)c1cccc(Cl)c1` [Example 33], for which the Efficacy in the data set with Pyrenophora teres came out at 80%. For the same compound, the logP in data set [1] is recorded as 4.34.

Turning to `CC[Si](C)(CN(C(=O)c1cccnc1Cl)C1CC1)c1ccccc1Cl` (stereo not drawn) [Example 38], the logP in data set [1] was 4.34. Moreover, the Efficacy in the data set on Septoria tritici is 80%.

In the case of `C[Si](C)(CNC(=O)c1cccnc1C(F)(F)F)c1ccccc1Cl` [Example 39], the logP in data set [1] is on record as 3.25. The compound also displayed an Efficacy with Septoria tritici of 96%.

`C[Si](C)(CNC(=O)c1cccnc1Cl)c1ccccc1Cl` [Example 40]: the logP in data set [1] was 2.94. For the same compound, the Efficacy in the data set with Septoria tritici is given as 96%.

For `C[Si](C)(CNC(=O)c1nccnc1C(F)(F)F)c1ccccc1Cl` [Example 41], the Efficacy in the data set on Sphaerotheca fuliginea came out at 78%; in the data set on Septoria tritici, 90%. Also, the logP in data set [1] was found to be 3.50.

Turning to `C[Si](C)(CN(C(=O)c1cccnc1C(F)F)C1CC1)c1cc(F)ccc1Cl` [Example 51], the Efficacy with Pyrenophora teres worked out at 97%; in the data set with Puccinia recondita it was 88%; in the data set on Septoria tritici it was 100%. In data set [1], this compound had a logP of 3.89.

With `C[Si](C)(CN(C(=O)c1nccnc1C(F)(F)F)C1CC1)c1ccccc1C(F)(F)F` [Example 54], the Efficacy with Pyrenophora teres came out at 100%; in the data set on Sphaerotheca fuliginea it was 83%; in the data set with Septoria tritici it was 93%. The same compound registered a logP in data set [1] of 4.61.

Turning to `C[Si](C)(CN(C(=O)c1cccnc1C(F)(F)F)C1CC1)c1ccccc1C(F)(F)F` [Example 55], the values for the Efficacy in the data set with Pyrenophora teres and in the data set with Septoria tritici were 97% and 64%, respectively. Also, the logP in data set [1] came to 4.39.

In the data set on Pyrenophora teres, `C[Si](C)(CN(C(=O)c1nccnc1C(F)(F)F)C1CC1)c1ccc(Cl)cc1Cl` [Example 58] gave an Efficacy of 100%. The same compound returned a logP in data set [1] of 5.25.

In the data set on Pyrenophora teres, `C[Si](C)(CN(C(=O)c1cccnc1C(F)F)C1CC1)c1cc(Cl)cc(Cl)c1` [Example 68] registered an Efficacy of 80%. The compound also came in with a lipophilicity (logP) in data set [1] of 4.49.

In the data set with Pyrenophora teres, `C[Si](C)(CN(C(=O)c1cccnc1C(F)(F)F)C1CC1)c1ccc2ccccc2c1` [Example 78] returned an Efficacy of 95%. For the same compound, the logP in data set [1] worked out at 4.56.

In the data set with Pyrenophora teres, `C[Si](C)(CN(C(=O)c1nccnc1C(F)(F)F)C1CC1)c1cccs1` [Example 82] had an Efficacy of 95%. In data set [1], this compound had a logP of 4.01.

For the compound `C[Si](C)(CN(C(=O)c1cccnc1C(F)F)C1CC1)c1ccsc1` [Example 87], the Efficacy was found to be 100% in the data set with Pyrenophora teres and 88% in the data set on Alternaria solani. The compound also returned a log partition coefficient (logP) in data set [1] of 3.27.

With `C[Si](C)(CN(C(=O)c1cccnc1C(F)(F)F)C1CC1)c1ccsc1` [Example 91], the Efficacy is given as 70% in the data set on Pyrenophora teres and 78% with Alternaria solani. Besides, the logP in data set [1] is 3.72.

As to `C[Si](C)(Cc1cccc(Cl)c1)CN(C(=O)c1cccnc1C(F)F)C1CC1` [Example 104], the Efficacy with Pyrenophora teres is 80%; with Alternaria solani, 90%. Further, the logP in data set [1] turned out to be 4.16.

In the case of `C[Si](C)(Cc1ccc(Cl)cc1Cl)CN(C(=O)c1cccnc1C(F)F)C1CC1` [Example 110], the Efficacy in the data set on Pyrenophora teres is 95%; in the data set on Alternaria solani it was 70%. The same compound gave a logP in data set [1] of 4.74.

In the data set with Pyrenophora teres, `C[Si](C)(Cc1ccc(Cl)cc1Cl)CN(C(=O)c1nccnc1C(F)(F)F)C1CC1` [Example 111] registered an Efficacy of 95%. This compound returned a logP in data set [1] of 5.45.

The compound `C[Si](C)(Cc1cc(Cl)cc(Cl)c1)CN(C(=O)c1ccccc1I)C1CC1` [Example 119] yielded a logP in data set [1] of 6.14.

Consider `C[Si](C)(Cc1cc(Cl)cc(Cl)c1)CN(C(=O)c1ccccc1C(F)(F)F)C1CC1` [Example 120], for which the logP in data set [1] is reported as 5.94.

Compound `C[Si](C)(Cc1cc(Cl)cc(Cl)c1)CN(C(=O)c1cccnc1C(F)(F)F)C1CC1` [Example 121] came in with a logP in data set [1] of 5.22.

Turning to `CN(C[Si](C)(C)c1cc(Cl)cc(Cl)c1)C(=O)c1cccnc1C(F)F` [Example 122], the logP in data set [1] stood at 3.92.

As for `C[Si](C)(CNC(=S)c1cccnc1C(F)F)c1ccccc1Cl` [Example 123], the logP in data set [1] amounted to 3.83.

Consider `C[Si](C)(CN(C(=S)c1cccnc1C(F)F)C1CC1)c1ccc(Cl)cc1Cl` [Example 124], for which, in data set [1], the logP turned out to be 5.13.

As for `C[Si](C)(CN(C(=S)c1cccnc1C(F)F)C1CC1)c1ccc2ccccc2c1` [Example 125], the lipophilicity (logP) in data set [1] is reported as 4.72.

Turning to `C[Si](C)(CN(C(=S)c1nccnc1C(F)(F)F)C1CC1)c1ccc2ccccc2c1` [Example 126], the logP in data set [1] was determined as 5.35.

For the compound `C[Si](C)(Cc1ccccc1Cl)CN(C(=S)c1cccnc1C(F)F)C1CC1` [Example 127], the logP in data set [1] came to 4.76.
